From ChEMBL document CHEMBL6096734, “Design, Synthesis and Anti-Inflammatory Evaluation of 3-Substituted 5-Amidobenzoate Derivatives as Novel P2Y14 Receptor Antagonists via Structure-Guided Molecular Hybridization” (J Med Chem, 2025)
One block for each compound: values may come before it.

Columns and labels:
[1] = target: P2Y purinoceptor 1 (Homo sapiens, UniProt P47900); assay: Antagonist activity at human P2Y1R stably expressed in HEK293 cells assessed as inhibition of ADP-induced IP3 accumulation preincubated with compound for 30 mins followed by ADP addition by ELISA method; assay type: functional, cell-based
[2] = target: P2Y purinoceptor 2 (Homo sapiens, UniProt P41231); assay: Antagonist activity at human P2Y2R stably expressed in HEK293 cells assessed as inhibition of UTP-induced IP3 accumulation preincubated with compound for 30 mins followed by UTP addition by ELISA method; assay type: functional, cell-based
[3] = target: P2Y purinoceptor 4 (Homo sapiens, UniProt P51582); assay: Antagonist activity at human P2Y4R stably expressed in HEK293 cells assessed as inhibition of UTP-induced IP3 accumulation preincubated with compound for 30 mins followed by UTP addition by ELISA; assay type: functional, cell-based
[4] = target: P2Y purinoceptor 6 (Homo sapiens, UniProt Q15077); assay: Antagonist activity at human P2Y6R stably expressed in HEK293 cells assessed as inhibition of UDP-induced IP3 accumulation preincubated with compound for 30 mins followed by UDP addition by ELISA; assay type: functional, cell-based
[5] = target: P2Y purinoceptor 12 (Homo sapiens, UniProt Q9H244); assay: Antagonist activity at human P2Y12R stably expressed in HEK293 cells assessed as inhibition of 2-MeSADP-induced IP3 accumulation preincubated with compound for 30 mins followed by 2-MeSADP addition by ELISA; assay type: functional, cell-based
[6] = target: T1, Cytochrome P450 1A2 (Homo sapiens, UniProt P05177); assay: Inhibition of CYP1A2 in human liver microsomes using phenacetin as substrate measured after 30 mins by LC/MS analysis; assay type: ADME, Microsome
T1 sequence (P05177 whole entry): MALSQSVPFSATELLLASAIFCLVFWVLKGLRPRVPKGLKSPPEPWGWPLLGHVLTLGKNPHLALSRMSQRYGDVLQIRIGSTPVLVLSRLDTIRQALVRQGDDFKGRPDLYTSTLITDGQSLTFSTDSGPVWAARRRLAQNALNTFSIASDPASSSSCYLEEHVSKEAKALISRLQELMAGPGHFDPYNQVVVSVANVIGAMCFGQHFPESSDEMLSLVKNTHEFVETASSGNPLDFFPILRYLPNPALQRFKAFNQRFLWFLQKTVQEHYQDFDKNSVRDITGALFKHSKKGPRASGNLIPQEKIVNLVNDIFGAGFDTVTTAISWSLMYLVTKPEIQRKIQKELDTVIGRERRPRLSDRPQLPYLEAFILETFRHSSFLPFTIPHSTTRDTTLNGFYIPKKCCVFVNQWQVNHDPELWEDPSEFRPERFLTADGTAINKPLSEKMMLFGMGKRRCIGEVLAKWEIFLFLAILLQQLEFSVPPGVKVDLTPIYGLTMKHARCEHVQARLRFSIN

[7] = target: Cytochrome P450 2C9 (Homo sapiens, UniProt P11712); assay: Inhibition of CYP2C9 in human liver microsomes using diclofenac as substrate measured after 30 mins by LC/MS analysis; assay type: ADME, Microsome
[8] = target: Cytochrome P450 2C19 (Homo sapiens, UniProt P33261); assay: Inhibition of CYP2C19 in human liver microsomes using mephenytoin as substrate measured after 30 mins by LC/MS analysis; assay type: ADME, Microsome
[9] = target: Cytochrome P450 2D6 (Homo sapiens, UniProt P10635); assay: Inhibition of CYP2D6 in human liver microsomes using dextromethorphan as substrate measured after 30 mins by LC/MS analysis; assay type: ADME, Microsome
[10] = target: Cytochrome P450 3A4 (Homo sapiens, UniProt P08684); assay: Inhibition of CYP3A4 in human liver microsomes using midazolam as substrate measured after 30 mins by LC/MS analysis; assay type: ADME, Microsome
[11] = Stability of the compound in stimulated intestinal fluid assessed as half life; assay type: physicochemical; conditions: simulated intestinal fluid
[12] = Stability of the compound in stimulated gastric fluid assessed as half life; assay type: physicochemical; conditions: simulated gastric fluid
[13] = Metabolic stability in human liver microsomes assessed as intrinsic clearance at […] measured upto 45 mins in presence of NADPH by LC-MS analysis; assay type: ADME, Microsome; conditions: read-out: CLH
[14] = Metabolic stability in human liver microsomes assessed as half life at […] measured upto 45 mins in presence of NADPH by LC-MS analysis; assay type: ADME, Microsome
[15] = Cmax in male Sprague-Dawley rat at 10 mg/kg, iv measured upto 24 hrs; assay type: ADME, organism-based; conditions: in vivo
[16] = Half life in male Sprague-Dawley rat at 10 mg/kg, iv measured upto 24 hrs; assay type: ADME, organism-based; conditions: in vivo
[17] = Tmax in male Sprague-Dawley rat at 10 mg/kg, iv measured upto 24 hrs; assay type: ADME, organism-based; conditions: in vivo
[18] = AUC (0 to 24 hrs) in male Sprague-Dawley rat at 10 mg/kg, iv measured upto 24 hrs; assay type: ADME, organism-based; conditions: in vivo
[19] = Clearance in male Sprague-Dawley rat at 10 mg/kg, iv measured upto 24 hrs; assay type: ADME, organism-based; conditions: in vivo
[20] = Cmax in male Sprague-Dawley rat at 20 mg/kg, po measured upto 24 hrs; assay type: ADME, organism-based; conditions: in vivo
[21] = Half life in male Sprague-Dawley rat at 20 mg/kg, po measured upto 24 hrs; assay type: ADME, organism-based; conditions: in vivo
[22] = Tmax in male Sprague-Dawley rat at 20 mg/kg, po measured upto 24 hrs; assay type: ADME, organism-based; conditions: in vivo
[23] = AUC (0 to 24 hrs) in male Sprague-Dawley rat at 20 mg/kg, po measured upto 24 hrs; assay type: ADME, organism-based; conditions: in vivo
[24] = Clearance in male Sprague-Dawley rat at 20 mg/kg, po measured upto 24 hrs; assay type: ADME, organism-based; conditions: in vivo
[25] = Oral bioavailability in male Sprague-Dawley rat at 20 mg/kg measured upto 24 hrs; assay type: ADME, organism-based; conditions: in vivo
[26] = tested on: RAW264.7; assay: Cytotoxicity in mouse Raw264.7 cells at <80 uM incubated for 24 hrs by SRB method; assay type: toxicity, cell-based; conditions: raw264.7, 24 h
[27] = tested on: RAW264.7; assay: Anti-inflammatory activity in LPS-induced ALI in mouse RAW264.7 cells assessed as decrease in intracellular ROS level by DCFH-DA staining based flow cytometry analysis (reference value: 91.2%); assay type: functional; set-up: scale not given: the % may be the effect or the level left
[28] = tested on: RAW264.7; assay: Induction of pyroptosis in LPS induced mouse RAW264.7 cells by caspase-1/PI staining based flow cytometry (reference value: 49.6 %); assay type: functional

Sequence of P2Y purinoceptor 1 (P47900 whole entry): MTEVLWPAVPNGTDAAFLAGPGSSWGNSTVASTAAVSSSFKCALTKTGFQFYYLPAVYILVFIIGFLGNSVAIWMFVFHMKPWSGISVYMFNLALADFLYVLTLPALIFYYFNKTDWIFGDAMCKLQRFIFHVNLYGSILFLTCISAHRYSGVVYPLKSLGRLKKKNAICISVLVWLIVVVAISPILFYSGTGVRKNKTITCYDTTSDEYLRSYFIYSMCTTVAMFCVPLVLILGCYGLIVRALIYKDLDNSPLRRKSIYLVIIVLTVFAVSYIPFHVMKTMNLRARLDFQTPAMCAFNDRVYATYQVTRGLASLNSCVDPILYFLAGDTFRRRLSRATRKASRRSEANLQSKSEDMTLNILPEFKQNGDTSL
Sequence of Cytochrome P450 2D6 (P10635 whole entry): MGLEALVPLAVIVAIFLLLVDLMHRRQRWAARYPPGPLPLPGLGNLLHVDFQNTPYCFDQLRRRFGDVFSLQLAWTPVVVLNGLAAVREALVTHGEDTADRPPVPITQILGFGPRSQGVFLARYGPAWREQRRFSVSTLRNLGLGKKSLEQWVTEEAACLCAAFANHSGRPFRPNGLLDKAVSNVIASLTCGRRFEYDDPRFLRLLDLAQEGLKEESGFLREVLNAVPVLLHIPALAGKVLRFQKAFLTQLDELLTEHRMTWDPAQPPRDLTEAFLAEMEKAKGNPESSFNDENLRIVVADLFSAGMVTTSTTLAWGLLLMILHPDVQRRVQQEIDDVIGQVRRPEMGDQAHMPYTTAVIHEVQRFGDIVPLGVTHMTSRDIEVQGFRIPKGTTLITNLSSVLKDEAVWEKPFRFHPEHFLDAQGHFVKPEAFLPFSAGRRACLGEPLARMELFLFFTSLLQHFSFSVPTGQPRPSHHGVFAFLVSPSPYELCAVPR
Sequence of Cytochrome P450 2C19 (P33261 whole entry): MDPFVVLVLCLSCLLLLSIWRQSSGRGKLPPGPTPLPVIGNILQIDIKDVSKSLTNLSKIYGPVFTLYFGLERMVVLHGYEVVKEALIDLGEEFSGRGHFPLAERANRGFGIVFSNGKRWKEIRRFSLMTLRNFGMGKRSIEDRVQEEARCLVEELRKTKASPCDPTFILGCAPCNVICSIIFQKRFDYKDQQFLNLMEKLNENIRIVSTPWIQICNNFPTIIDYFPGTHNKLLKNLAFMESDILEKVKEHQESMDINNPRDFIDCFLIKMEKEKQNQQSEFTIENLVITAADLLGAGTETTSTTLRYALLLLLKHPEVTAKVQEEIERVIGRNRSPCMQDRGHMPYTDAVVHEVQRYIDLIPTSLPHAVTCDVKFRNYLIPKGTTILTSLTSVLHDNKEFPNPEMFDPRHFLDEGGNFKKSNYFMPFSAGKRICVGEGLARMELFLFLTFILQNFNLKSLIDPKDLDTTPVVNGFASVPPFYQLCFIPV
Sequence of P2Y purinoceptor 4 (P51582 whole entry): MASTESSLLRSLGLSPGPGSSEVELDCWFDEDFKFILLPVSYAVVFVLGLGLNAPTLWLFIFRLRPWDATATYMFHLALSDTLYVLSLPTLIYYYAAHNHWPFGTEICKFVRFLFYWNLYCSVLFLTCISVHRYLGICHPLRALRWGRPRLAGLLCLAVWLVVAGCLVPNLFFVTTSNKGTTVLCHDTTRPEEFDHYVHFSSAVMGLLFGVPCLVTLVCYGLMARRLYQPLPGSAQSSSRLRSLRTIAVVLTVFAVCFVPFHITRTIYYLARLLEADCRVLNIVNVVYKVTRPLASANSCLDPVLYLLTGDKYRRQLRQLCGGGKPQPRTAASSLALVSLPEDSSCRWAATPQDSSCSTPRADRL
Sequence of P2Y purinoceptor 6 (Q15077 whole entry): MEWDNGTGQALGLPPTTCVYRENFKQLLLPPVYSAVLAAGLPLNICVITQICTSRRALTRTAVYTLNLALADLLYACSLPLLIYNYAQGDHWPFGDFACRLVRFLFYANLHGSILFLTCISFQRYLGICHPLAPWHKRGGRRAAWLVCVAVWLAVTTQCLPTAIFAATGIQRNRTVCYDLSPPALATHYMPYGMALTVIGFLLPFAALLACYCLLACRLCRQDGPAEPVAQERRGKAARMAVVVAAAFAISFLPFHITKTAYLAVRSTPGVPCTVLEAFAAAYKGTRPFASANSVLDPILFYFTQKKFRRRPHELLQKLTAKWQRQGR
Sequence of P2Y purinoceptor 12 (Q9H244 whole entry): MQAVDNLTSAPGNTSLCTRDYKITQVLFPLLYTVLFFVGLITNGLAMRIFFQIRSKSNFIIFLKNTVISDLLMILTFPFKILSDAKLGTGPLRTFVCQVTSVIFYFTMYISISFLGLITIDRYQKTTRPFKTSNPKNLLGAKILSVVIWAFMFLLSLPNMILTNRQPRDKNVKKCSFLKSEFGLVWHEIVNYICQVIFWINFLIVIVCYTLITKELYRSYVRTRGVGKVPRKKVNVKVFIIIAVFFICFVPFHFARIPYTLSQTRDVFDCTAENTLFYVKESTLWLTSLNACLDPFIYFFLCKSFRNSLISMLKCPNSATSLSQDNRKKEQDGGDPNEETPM
Sequence of Cytochrome P450 3A4 (P08684 whole entry): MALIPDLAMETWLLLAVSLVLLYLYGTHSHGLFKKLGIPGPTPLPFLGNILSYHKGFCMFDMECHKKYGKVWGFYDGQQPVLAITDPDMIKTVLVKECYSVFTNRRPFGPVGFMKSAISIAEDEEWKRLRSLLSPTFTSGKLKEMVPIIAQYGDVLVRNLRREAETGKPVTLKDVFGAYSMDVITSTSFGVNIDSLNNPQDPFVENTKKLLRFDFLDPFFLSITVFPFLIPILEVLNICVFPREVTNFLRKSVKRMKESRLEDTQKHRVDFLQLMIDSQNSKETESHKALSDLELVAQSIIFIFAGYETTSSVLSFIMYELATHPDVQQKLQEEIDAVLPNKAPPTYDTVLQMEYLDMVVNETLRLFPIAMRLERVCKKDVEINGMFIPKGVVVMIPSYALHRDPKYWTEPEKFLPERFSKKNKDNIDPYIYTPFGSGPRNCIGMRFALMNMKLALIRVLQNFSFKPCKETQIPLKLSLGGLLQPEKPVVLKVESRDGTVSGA
Sequence of P2Y purinoceptor 2 (P41231 whole entry): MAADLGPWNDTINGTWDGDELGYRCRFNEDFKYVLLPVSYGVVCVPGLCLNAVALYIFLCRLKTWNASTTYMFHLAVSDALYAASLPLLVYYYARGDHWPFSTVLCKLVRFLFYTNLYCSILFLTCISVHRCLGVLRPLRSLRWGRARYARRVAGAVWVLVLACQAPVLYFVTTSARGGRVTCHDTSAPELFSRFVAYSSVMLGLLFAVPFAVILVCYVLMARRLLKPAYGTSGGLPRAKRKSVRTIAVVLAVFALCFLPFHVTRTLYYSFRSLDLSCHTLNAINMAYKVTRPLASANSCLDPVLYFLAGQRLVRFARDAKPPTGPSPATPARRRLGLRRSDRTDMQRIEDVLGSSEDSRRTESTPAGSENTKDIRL
Sequence of Cytochrome P450 2C9 (P11712 whole entry): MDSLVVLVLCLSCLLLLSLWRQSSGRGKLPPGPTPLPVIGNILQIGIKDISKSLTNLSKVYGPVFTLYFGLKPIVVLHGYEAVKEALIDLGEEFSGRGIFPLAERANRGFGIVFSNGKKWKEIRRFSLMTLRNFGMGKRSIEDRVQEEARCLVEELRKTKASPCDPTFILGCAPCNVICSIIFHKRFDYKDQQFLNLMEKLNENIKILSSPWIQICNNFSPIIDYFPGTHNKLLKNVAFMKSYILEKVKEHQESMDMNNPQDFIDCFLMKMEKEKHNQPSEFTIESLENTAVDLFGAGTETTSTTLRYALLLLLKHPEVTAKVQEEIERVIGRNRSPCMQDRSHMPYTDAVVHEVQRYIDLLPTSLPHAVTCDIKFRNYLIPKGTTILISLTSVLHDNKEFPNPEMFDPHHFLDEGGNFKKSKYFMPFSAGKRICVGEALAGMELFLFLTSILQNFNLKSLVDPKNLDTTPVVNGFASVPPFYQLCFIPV

IC50 [1]: > 100 µM | IC50 [2]: > 100 µM | IC50 [3]: > 100 µM | IC50 [4]: 47.6 µM | IC50 [5]: > 100 µM | IC50 [6]: > 30 µM | IC50 [7]: > 30 µM | IC50 [8]: > 30 µM | IC50 [9]: > 30 µM | IC50 [10]: > 30 µM | half-life [11]: > 300 min | half-life [12]: > 50 h | microsomal CLint [13]: 25.6 µL/min/mg | half-life [14]: 354 min | Cmax ([15]; male, Sprague-Dawley, read-out: Cmax): 964 ng/mL | half-life ([16]; male, Sprague-Dawley): 48 min | Tmax ([17]; male, Sprague-Dawley, read-out: Tmax (converted)): 19 min | AUC(0-t) at 24 h ([18]; male, Sprague-Dawley): 895 ng·h/mL | clearance [19]: 26.1 mL/min/kg | Cmax [20]: 1940 ng/mL | half-life [21]: 96 min | Tmax [22]: 26 min | AUC(0-t) at 24 h ([23]; male, Sprague-Dawley): 1120 ng·h/mL | CL/F [24]: 46.5 mL/min/kg | bioavailability ([25]; male, Sprague-Dawley): 38%
SMILES: COC(=O)c1cc(NC(=O)Cc2ccc(C)cc2)cc(-c2nc3ccccc3[nH]2)c1
Activity [26]: Non-toxic

Cmax ([15]; iv, 10 mg/kg, 24 h): 1024 ng/mL | t1/2 ([16]; iv, 10 mg/kg, 24 h): 12 min | Tmax ([17]; iv, 10 mg/kg, 24 h): 8 min | AUC ([18]; iv, 10 mg/kg, 24 h): 2411 ng·h/mL | clearance [19]: 11.5 mL/min/kg | Cmax [20]: 1540 ng/mL | half-life [21]: 24 min | Tmax [22]: 17 min | AUC ([23]; po, 20 mg/kg, 24 h): 3001 ng·h/mL | CL/F [24]: 22.1 mL/min/kg | F ([25]; po, 20 mg/kg, 24 h): 12%
SMILES: O=C(O)c1cc(-c2ccc(C3CCNCC3)cc2)c2ccc(-c3ccc(C(F)(F)F)cc3)cc2c1 [PPTN]
Activity [27]: 58.7% | Activity [28]: 8.93%
